How the values were obtained:
HEK293 cells [1] = test: Preliminary screening as mRNA vectors, EGFP mRNA transfection of HEK293 cells; format: cell-based; details: HEK293 cells, 96-well plates, EGFP mRNA 50 ng per well; percentage of GFP fluorescent cells relative to total number of cells (Hoechst)
In short: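 HEK293 cells in DMEM plus 10% FBS transfected in 96-well format with 50 ng EGFP mRNA per well; Lipofectamine2000 served as positive control. Read-out is the percentage of GFP-fluorescent cells among total cells, counted by Hoechst nuclear stain.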

HEK293 cells [2] = test: Preliminary screening as DNA vectors, GFP transfection of HEK293 cells; format: cell-based; details: HEK293 cells; lipid/DOPE liposome with 75 ng plasmid DNA (psin-EGFP-IRES-Puro); number of cells expressing GFP divided by total number of nuclei (Hoechst)
In short: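 HEK293 cells in DMEM/10% FBS transfected with 75 ng EGFP plasmid per well complexed with amino lipid/DOPE liposomes in pH 5.6 sodium acetate. Hoechst nuclear stain added 20-24 h post-transfection, then cells cultured another 20-24 h. Confocal imaging gives GFP-positive cells as % of total nuclei.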

| Compound | Absolute mRNA transfection efficiency in HEK293 cells (HEK293 cells [1]) [%] | Absolute DNA transfection efficiency in HEK293 cells (HEK293 cells [2]) [%] |
| --- | --- | --- |
| CCCCCCCCCCCCCCCCCCNc1nc(NCCCCCCCCCCCCC)nc(NCCN2CCCCC2)n1 [Compound N13N18D4] | 3.1 | 1.8 |
| CCCCCCCCCNc1nc(NCCCCCC)nc(NCCN2CCCCC2)n1 [Compound N6N9D4] | 0.3 | 0.0 |
| CCCCCCCCCNc1nc(NCCCCCCCC)nc(NCCN2CCN(C)CC2)n1 [Compound N8N9D5] | 0.0 | 0.0 |
| CCCCCCCCCCCCCCCCSc1nc(NCCCN2CCOCC2)nc(SCCCCCCCCCCCCCCCC)n1 [Compound S16S16D8] | 1.7 | 0.0 |
| CCCCCCCCCCCCCCCCCCNc1nc(NCCCCCCC)nc(NCCN(C)C)n1 [Compound N7N18D1] | 2.3 | 1.0 |
| CCCCCCCCCCCCNc1nc(NCCCCCCCCCCC)nc(NCCN2CCCCC2)n1 [Compound N11N12D4] | 1.2 | 0.0 |
| CCCCCCCCCCCCCCCNc1nc(NCCN(C)C)nc(N(CCCCCCCCCCCC)CCCCCCCCCCCC)n1 [N15^2N12D1] | 0.0 | 0.9 |
| CCCCCCCCCCCCCCCCCCSc1nc(NCCCN2CCOCC2)nc(SCCCCCCCCCCCCCC)n1 [Compound S14S18D8] | 0.3 | 0.2 |
| CCCCCCCCCCCCCCCCCCSc1nc(NCCN2CCN(C)CC2)nc(SCCCCCCCCCCCCCCCC)n1 [Compound S16S18D5] | 0.3 | 1.7 |
| CCCCCCCCCCCCCCCNc1nc(NCCCCCCCCCCC)nc(NCCCN(C)C)n1 [Compound N11N15D6] | 0.3 | 1.6 |
| CCCCCCCCCCCCCNc1nc(NCCCCCCCC)nc(NCCN2CCCC2)n1 [Compound N8N13D3] | 2.7 | 0.9 |
| CCCCCCCCCCCCCCCCNc1nc(NCCCCCCCCC)nc(NCCN2CCCCC2)n1 [Compound N9N16D4] | 4.5 | 0.8 |
| CCCCCCCCCNc1nc(NCCCCCCCCC)nc(NCCN2CCCCC2)n1 [Compound N9N9D4] | 0.6 | 0.0 |
| CCCCCCCCCCCCCCCNc1nc(NCCCCCCCCCCC)nc(NCCCN2CCN(C)CC2)n1 [Compound N11N15D9] | 0.3 | 0.1 |
| CCCCCCCCCCCCCCCCCCNc1nc(NCCCCCCCCCCC)nc(NCCN2CCCC2)n1 [Compound N11N18D3] | 2.8 | 0.6 |
| CCCCCCCCCCCCN(CCCCCCCCCCCC)c1nc(NCCN2CCOCC2)nc(N(CCCCCCCCCCCC)CCCCCCCCCCCC)n1 [2N12^2N12D2] | 1.9 | 0.0 |
| CCCCCCCCCCCCCCCCCCNc1nc(NCCCCCCCCCCC)nc(NCCN2CCOCC2)n1 [Compound N11N18D2] | 0.8 | 0.3 |
| CCCCCCCCCCCCNc1nc(NCCCN(C)C)nc(N(CCCCCCCCCCCC)CCCCCCCCCCCC)n1 [N12^2N12D6] | 1.2 | 3.6 |
| CCCCCCCCCCCCCCSc1nc(NCCN2CCOCC2)nc(SCCCCCCCCCCC)n1 [Compound S11S14D2] | 0.0 | 0.7 |
| CCCCCCCCCCCCN(CCCCCCCCCCCC)c1nc(NCCN2CCCC2)nc(N(CCCCCCCCCCCC)CCCCCCCCCCCC)n1 [2N12^2N12D3] | 0.0 | 1.3 |
| CCCCCCCCCCCNc1nc(NCCCCCCCC)nc(NCCN2CCN(C)CC2)n1 [Compound N8N11D5] | 0.4 | 0.2 |
| CCCCCCCCCCCCNc1nc(NCCCCCCCCC)nc(NCCCN2CCN(C)CC2)n1 [Compound N9N12D9] | 0.1 | 0.0 |
| CCCCCCCCCCCCCNc1nc(NCCCCCCC)nc(NCC2CCN(C)CC2)n1 [Compound N7N13D10] | 1.6 | 1.6 |
| CCCCCCCCCCCCCCCNc1nc(NCCCCCCCCCCCCCCC)nc(NCCN2CCOCC2)n1 [Compound N15N15D2] | 0.0 | 0.0 |

| Compound | Absolute mRNA transfection efficiency in HEK293 cells (HEK293 cells [1]) [%] | Absolute DNA transfection efficiency in HEK293 cells (HEK293 cells [2]) [%] |
| --- | --- | --- |
| CCCCCCCCCCCCCCCSc1nc(NCCN(C)C)nc(SCCCCCCCCCCCC)n1 [Compound S12S15D1] | 4.1 | 0.8 |
| CCCCCCCCCCCCCCCSc1nc(NCC2CCN(C)CC2)nc(SCCCCCCCCCCC)n1 [Compound S11S15D10] | 75.9 | 42.3 |
| CCCCCCCCCCCCCCCCCCSc1nc(NCCN2CCOCC2)nc(SCCCCCCCCCCCCCCC)n1 [Compound S15S18D2] | 0.5 | 0.1 |
| CCCCCCCCCCCCCNc1nc(NCCCCCCC)nc(NCCCN2CCOCC2)n1 [Compound N7N13D8] | 0.1 | 0.0 |
| CCCCCCCCCCCCCCCCNc1nc(NCCCCCCCCC)nc(NCCCN2CCN(C)CC2)n1 [Compound N9N16D9] | 1.1 | 0.0 |
| CCCCCCCCCCCCCCCCNc1nc(NCCN2CCCC2)nc(N(CCCCCCCCCCCC)CCCCCCCCCCCC)n1 [N16^2N12D3] | 4.0 | 2.0 |
| CCCCCCCCCCCCCCCCCCNc1nc(NCCCCCCCCCCC)nc(NCCN2CCN(C)CC2)n1 [Compound N11N18D5] | 0.0 | 1.4 |
| CCCCCCCCCCCCCCCCCCNc1nc(NCCCCCCCCC)nc(NCCN2CCOCC2)n1 [Compound N9N18D2] | 25.3 | 3.6 |
| CCCCCCCCCCCCCCCCCCNc1nc(NCCCCCCCCCCCCCCCC)nc(NCCCN(C)C)n1 [Compound N16N18D6] | 4.4 | 0.0 |
| CCCCCCCCCCCCCCCCCCSc1nc(NCCN2CCCCC2)nc(SCCCCCCCC)n1 [Compound S8S18D4] | 2.0 | 15.8 |
| CCCCCCCCCNc1nc(NCCCCCC)nc(NCCCN(C)C)n1 [Compound N6N9D6] | 0.2 | 0.0 |
| CCCCCCCCCCCCCCCCNc1nc(NCCCCCCCC)nc(NCCN2CCCCC2)n1 [Compound N8N16D4] | 2.3 | 5.3 |
| CCCCCCCCCCCCCCSc1nc(NCC2CCN(C)CC2)nc(SCCCCCCCCCC)n1 [Compound S10S14D10] | 37.7 | 23.0 |
| CCCCCCCCNc1nc(NCCCCCC)nc(NCCCN2CCOCC2)n1 [Compound N6N8D8] | 0.0 | 0.0 |
| CCCCCCCCCCCCCCCCCCNc1nc(NCCCCCCCCCCCCC)nc(NCCCN2CCOCC2)n1 [Compound N13N18D8] | 0.0 | 0.0 |
| CCCCCCCCCNc1nc(NCCCCCCCC)nc(NCCCN(C)C)n1 [Compound N8N9D6] | 0.0 | 0.4 |
| CCCCCCCCCCCCCCCCSc1nc(NCCCN2CCN(C)CC2)nc(SCCCCCCCCCCCC)n1 [Compound S12S16D9] | 0.0 | 0.5 |
| CCCCCCCCCCCCSc1nc(NCCCN(C)C)nc(SCCCCCCCCCC)n1 [Compound S10S12D6] | 82.4 | 16.2 |
| CCCCCCCCCCCCCCCCCCSc1nc(NCCN2CCOCC2)nc(SCCCCCCCCCCCCCC)n1 [Compound S14S18D2] | 0.0 | 0.2 |
| CCCCCCCCCCCNc1nc(NCCCCCCCC)nc(NCCCN2CCOCC2)n1 [Compound N8N11D8] | 0.1 | 0.0 |
| CCCCCCCCCCCCCCCNc1nc(NCCCCCCCC)nc(NCCN2CCN(C)CC2)n1 [Compound N8N15D5] | 0.2 | 0.6 |
| CCCCCCCCCCCSc1nc(NCCN2CCCC2)nc(SCCCCCCCCC)n1 [Compound S9S11D3] | 1.9 | 10.0 |
| CCCCCCCCCCCCNc1nc(NCCN2CCCCC2)nc(N(CCCCCCCCCCCC)CCCCCCCCCCCC)n1 [N12^2N12D4] | 2.6 | 2.5 |
